Structures are written as SMILES. Like-named read-outs stand apart in the source and are kept apart here.

The nature of series [1]: toxicity studies, mouse p.o. Conditions: in vivo, po; for LD50 at 168 h: Column F, mouse p.o., 7 days observation, read-out: Approximate LD50. The protocol:
The toxicity studies are carried out on female NMRI mice (body weight 23-30 g). The animals (5 animals per dose) receive food and water ad libitum. Various doses of the substances are administered once as a suspension in methocel via a gavage. The period of observation lasts 7 days. The tolerated dose (TD), that is to say the highest dose at which as yet none of the animals die, is determined by observation. The average lethal dose (LD50), that is to say the dose at which 50% of the animals die, is determined from the dose/action curve by means of linear regression.

Series [2] concerns electrically stimulated left atrium of rats. The experiment in a line: positive inotropic action on electrically stimulated left atrium in vitro. The arrangement: species or system rat. Conditions: for [EC40 pot.] theophylline / [EC40 pot.] substance: Column E, left atrium; for EC40: Rattus norvegicus, Column B, negative logarithm of EC40pot in mol/l, 40% increase in contraction force, read-out: -lg[EC40 pot.] left atrium (converted).

Series [3] relates to chain of tracheal rings of guinea pigs. Description: relaxing action on chain of tracheal rings in vitro (bronchospasmolytic action). The arrangement: species or system guinea pig. The settings on record: for EC50: Cavia porcellus, Column A, negative logarithm of EC50 in mol/l, 50% of maximum relaxation by (-)isoprenaline, read-out: -lg[EC50] trachea (converted); for [EC40 pot.] left atrium / [EC50] trachea: Column C, measure of organ-selective activity; for [EC50] theophylline / [EC50] substance: Column D, trachea.
Method: The relaxing action of the 6-aryl-3[2H]pyridazinones I has been tested in vitro on a chain of tracheal rings (Tr.) of guinea pigs. […] The quotient of [EC40pot. ]left atrium and [ED50 ]trachea serves as a measure of the organ-selective activity.
The bronchospasmolytic action of the compounds on the chain of tracheal rings of the guinea pig was tested in vitro:
Four parallel chains of tracheal rings, each consisting of 6 individual rings, of guinea pigs(.male. and .female., 430-600 g) in an organ bath [5 ml, Krebs-Henseleit solution with added phentolamine (10^-5 mol/l), 37° C., initial tension of the organs 2 g, gassing with carbogen] develop a stable, spontaneous tonic contraction after about 20 to 30 minutes. […] Over a period of 20 to 30 minutes, a complete dose/action curve of the test substance is thus obtained. The particular relaxation is expressed as a percentage fraction of the maximum relaxation which can be achieved by administration of (-)isoprenaline (10^-6 mol/1). The concentration of the test substance which causes 50% of the maximum relaxation which can be achieved, expressed by the negative logarithm of the EC50 mol/l: -lg[EC50 ]is a measure of the bronchodilator activity.

Series [4] concerns guinea pig hearts isolated and perfused by the Langendorff method. Description: left-ventricular pressure and heart rate in isolated perfused Langendorff hearts. The settings on record: for Emax: Cavia porcellus; for EC20 left-ventricular pressure: dose which leads to a 20% increase in left ventricular pressure. From the text: After the animals have been sacrificed by a blow to the neck and exsanguination through the carotid arteries, the thoracic cavity is opened, and the aorta is exposed and looped up with a thread. A cannula, which is attached by tubing to the apparatus from which the nutrient solution slowly drops, is introduced in the direction of the heart and the heart is, quickly after removal from the thorax, connected to the perfusion apparatus. A balloon probe, connected to a Statham pressure sensor, is advanced through a cut through the left atrium into the left ventricle, and is provided with an initial pressure of 40 mm Hg. […] The nutrient solution flowing freely from the coronary sinus into the right atrium is measured with a flow […]) and, together with the change in the left-ventricular pressure and the heart rate determined from this, is recorded on a Watanabe recorder. The substances are administered in a volume of 0.1 ml of nutrient solution, in the dosage indicated in Tab.

Series [5] has as its system right ventricle of guinea pigs. Description: heart function dP/dtmax, right ventricle of anesthetized guinea pigs. The class given is in vivo, guinea pig. The protocol: The effect of the substances on the contractility of the heart of guinea pigs is tested on animals (.male., 400 to 1000 g) under urethane anesthesia. The change in pressure in the right ventricle of the heart is measured with a tip catheter introduced through the right jugular vein and the maximum rate of pressure rise (dP/dtmax) is determined from this. The heart rate is derived from the pressure waves. […] The test substances were administered intravenously. 5-7 animals were used for each measurement, and the arithmetic mean was calculated from the results.

The subject of series [6] is acetylcholine-induced bronchospasm. Description: protective effect against acetylcholine-induced bronchospasm in conscious guinea pigs. The class given is in vivo, guinea pig. Conditions: for Doubling of the latency period / Tripling of the latency period: 30 min; for Tripling of the latency period: figure in parentheses. The protocol:
The figure in parentheses indicates the number out of 10 animals in which the latency period more than tripled.
The latency period is to be understood to be the time from the start of acetylcholine-atomization until clear signs of asthma appeared.
The time from the start of atomization to the onset of clear respiratory exertion (in certain circumstances, hypoxic convulsion in the lateral position) is measured, and is denoted the latency period.
The test substance is administered orally by gavage (standard dose 100 μmol/kg, volume 1 ml of 4% strength methocel suspension in 0.9% strength sodium chloride solution/kg). […] Prolongation of the latency period to at least twice its length is regarded as a protective effect.

In series [7] the test system is histamine-induced bronchospasm. The experiment in a line: inhibition of histamine-induced bronchospasm in anesthetized guinea pigs. Conditions: for inhibition of histamine-induced bronchospasm, TVi / inhibition of histamine-induced bronchospasm, Vmaxe / inhibition of histamine-induced bronchospasm, Vmaxi: 20 μmol/kg i.v. The class given is in vivo, guinea pig. The protocol:
A method for simultaneously recording pharmacodynamic and toxic effects on internal sensitive receptors, on the respiration and the cardiovascular system of guinea pigs was used [U. Kilian, E. Muller, E. Ch. […] To characterize the bronchospasm induced by histamine (0.09-0.18 μmol /kg i.v.), the maximum flow rate of the respiratory air during inspiration (Vmaxi) and expiration (Vmaxe) and the breath volume (BVi) were measured. A histamine spasm before administration of the substance was compared with several histamine spasms after administration of the substance. The test substances were administered intravenously (i.v.) and/or intrajejunally (i.j.). 5 to 10 animals were used per measurement, and the arithmetic mean was calculated from the results.

[8] abbreviates: after 500 nMol, read-out: Emax left-ventricular pressure.
The mark [9] stands for this setting: at Emax, 500 nMol, read-out: Percentage increase in heart rate at Emax.

`COc1ccc(-c2ccc(=O)[nH]n2)cc1` [compound 19]: the tolerated dose in series [1] (mouse, 10080 min) was over 400. Also, in series [2], the “[EC40 pot.] theophylline / [EC40 pot.] substance” value came to 4.7 and the EC40 is 170 µM. Moreover, in series [3], the EC50 was 8.91 µM, the “[EC40 pot.] left atrium / [EC50] trachea” value came to 19.1 and the “[EC50] theophylline / [EC50] substance” value came to 15.1. For the same compound, in series [4] (after 1000 nMol, read-out: Emax left-ventricular pressure), the Emax worked out at 45%. Also, in series [4] (at Emax, 1000 nMol, read-out: Percentage increase in heart rate at Emax), the Emax was found to be 11%. Also, in series [4], the “Percentage increase in heart rate at EC20” value (shortened to “Percentage increase”) is on record as 6% and the EC20 left-ventricular pressure came out at 160 nmol.

`CCCOc1cc(-c2ccc(=O)[nH]n2)ccc1OC` [Serial No. 10, 6-(4-methoxy-3-n-propoxyphenyl)-3[2H]pyridazinone]: the 50% lethal dose (LD50) at 168 h in series [1] was found to be 770 mg/kg. In addition, the “[EC40 pot.] theophylline / [EC40 pot.] substance” value in series [2] is 661. In addition, in series [2], the EC40 is 0.631 µM. Further, the “Percentage change in dP/dtmax” value worked out at 42% in series [5] (0.3 μmol/kg i.v., 0-10 min (Maximum)); 16% in series [5] (0.3 μmol/kg i.v., 10 min); 21% in series [5] (0.3 μmol/kg i.v., 30 min); 97% in series [5] (1 μmol/kg i.v., 0-10 min (Maximum)); 45% in series [5] (1 μmol/kg i.v., 10 min); 46% in series [5] (1 μmol/kg i.v., 30 min). The “Percentage change in dP/dtmax” value in series [5] (3 μmol/kg i.v., 0-10 min (Maximum)) worked out at 164%; in series [5] (3 μmol/kg i.v., 10 min), 90%; in series [5] (3 μmol/kg i.v., 30 min), 66%. Further, the EC50 in series [3] was 0.468 µM. In addition, the “[EC40 pot.] left atrium / [EC50] trachea” value in series [3] was 1.3. Further, the “[EC50] theophylline / [EC50] substance” value in series [3] is on record as 288. Further, the “Doubling of the latency period” value in series [6] (100 μmol/kg p.o.) is 6 N of 10 animals; in series [6] (300 μmol/kg p.o.), 10 N of 10 animals. For the same compound, the “Tripling of the latency period” value in series [6] (100 μmol/kg p.o.) was 6 N of 10 animals; in series [6] (300 μmol/kg p.o.), 8 N of 10 animals. The “protective effect compared with theophylline” value in series [6] (result in words) is recorded as “greater protective effect”. Moreover, the values for the Emax in series [4] (setting [8]) and in series [4] (setting [9]) were 61% and 19%, respectively. Also, the “Percentage increase” value in series [4] was determined as 9%. In series [4], this compound registered an EC20 left-ventricular pressure of 40 nmol.

Turning to `C=CCOc1cc(-c2ccc(=O)[nH]n2)ccc1OC` [compound 9], in series [1], the LD50 at 168 h turned out to be 610 mg/kg. For the same compound, in series [2], the “[EC40 pot.] theophylline / [EC40 pot.] substance” value is 331 and the EC40 is 1.26 µM. Also, in series [3], the EC50 was 0.537 µM, the “[EC40 pot.] left atrium / [EC50] trachea” value is listed as 2.3 and the “[EC50] theophylline / [EC50] substance” value is listed as 251. Moreover, the Emax in series [4] (setting [8]) turned out to be 53%. Besides, in series [4] (setting [9]), the Emax is 21%. In addition, in series [4], the “Percentage increase” value came out at 7% and the EC20 left-ventricular pressure amounted to 50 nmol.

As to `COc1ccc(-c2ccc(=O)[nH]n2)cc1OC(C)C` [Serial No. 11, 6-(4-methoxy-3-isopropoxyphenyl)-3[2H]pyridazinone], in series [1], the LD50 at 168 h was found to be 600 mg/kg. Besides, the EC40 in series [2] was over 1000 µM. In addition, in series [7] (2 min), the “inhibition of histamine-induced bronchospasm, TVi” value (“inhibition … TVi” for short) is 117%; the “inhibition of histamine-induced bronchospasm, Vmaxe” value (shortened to “inhibition … Vmaxe”) stood at 123%; the “inhibition of histamine-induced bronchospasm, Vmaxi” value (from here on “inhibition … Vmaxi”) amounted to 152%. Besides, in series [7] (10 min), the “inhibition … TVi” value came to 84%; the “inhibition … Vmaxe” value came to 109%; the “inhibition … Vmaxi” value was found to be 113%. In addition, in series [7] (20 min), the “inhibition … TVi” value is listed as 54%; the “inhibition … Vmaxe” value worked out at 63%; the “inhibition … Vmaxi” value was found to be 89%. In series [7] (30 min), the “inhibition … TVi” value was 38%; the “inhibition … Vmaxe” value is 43%; the “inhibition … Vmaxi” value is 47%. Moreover, in series [7] (60 min), the “inhibition … TVi” value was 5%; the “inhibition … Vmaxe” value came to 6%; the “inhibition … Vmaxi” value came out at 9%. In addition, in series [7] (result in words), the “inhibition of histamine-induced bronchospasm compared with theophylline” value is “significantly more effective than theophylline”. In addition, in series [3], the 50% effective concentration (EC50) was 0.0977 µM, the “[EC40 pot.] left atrium / [EC50] trachea” value is 10000 and the “[EC50] theophylline / [EC50] substance” value was found to be 1370.

On to `CCCOc1ccc(-c2ccc(=O)[nH]n2)cc1OC` [compound 2], for which the LD50 at 168 h in series [1] came out at 530 mg/kg. Further, the EC40 in series [2] is 7.24 µM. The 50% effective concentration (EC50) in series [3] is 0.417 µM. In addition, the maximal response (Emax) in series [4] (after 300 nMol, read-out: Emax left-ventricular pressure) was found to be 59%; in series [4] (at Emax, 300 nMol, read-out: Percentage increase in heart rate at Emax) it was 13%.

(Values after patent US4707481A, “Pyridazinones, their preparation and use, and bronchospasmolytic medicaments containing pyridazinones” (BYK Gulden Lomberg Chemische Fabrik GmbH, priority 1983, dated 1987).)
